Series [1] deals with recombinant NL4-3 virus. Description: HIV cell culture assay (antiviral activity, luciferase readout). The series is classed as cell-based. As to conditions: Human immunodeficiency virus 1, NL43, MT2, MT-2 cells infected for 4-5 days with recombinant NL4-3 virus carrying Renilla luciferase. An outline of the steps: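 MT-2 cells infected for 4-5 days with NL4-3 reference virus carrying Renilla luciferase in place of part of nef, in presence of serial compound dilutions. Luciferase read with live-cell substrate; EC50 from median effect equation fit.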

Series [2] can be described thus: Compound cytotoxicity, XTT-based colorimetric assay. As to conditions: human; uninfected MT2 cells, day 4, XTT assay. The series is classed as cell-based. The essentials:
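Run under the antiviral-assay protocol but without virus. Viability was read on day 4 and CC50 values were derived from the readout.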
For orientation: Formazan colour is commonly taken as a measure of viable cells.

From patent US20220389007A1, “INHIBITORS OF HUMAN IMMUNODEFICIENCY VIRUS REPLICATION” (VIIV HEALTHCARE UK (No. 5) LIMITED, priority 2019, published 2022) come the findings set out here.

`Cn1nc(NS(C)(=O)=O)c2c(Cl)ccc(-n3c([C@H](Cc4cc(F)cc(F)c4)NC(=O)Cn4nc(C(F)F)c5c4C(F)(F)[C@@H]4C[C@H]54)nc4nc(-c5ccnc(C(F)(F)F)n5)ccc4c3=O)c21` (atropisomer, axis not shown; (P)) [Example 37, N-((S)-1-((3P)-3-(4-chloro-1-methyl-3-(methylsulfonamido)-1H-indazol-7-yl)-4-oxo-7-(2-(trifluoromethyl)pyrimidin-4-yl)-3,4-dihydropyrido[2,3-d]pyrimidin-2-yl)-2-(3,5-difluorophenyl)ethyl)-2-((3bS,4aR)-3-(difluoromethyl)-5,5-difluoro-3b,4,4a,5-tetrahydro-1H-cyclopropa[3,4]cyclopenta[1,2-c]pyrazol-1-yl)acetamide]: in series [1], the EC50 (usually the concentration at which the effect is half-maximal) was 0.11 nM. Moreover, the CC50 (commonly the concentration that lowers cell viability or growth by half) at 4 day in series [2] was greater than 100 nM.

On to `Cn1nc(NS(C)(=O)=O)c2c(Cl)ccc(-n3c([C@H](Cc4cc(F)cc(F)c4)NC(=O)Cn4nc(C(F)F)c5c4C(F)(F)[C@@H]4C[C@H]54)nc4nc(-c5ccc6ncsc6c5)ccc4c3=O)c21` (atropisomer, axis not shown; (P)) [Example 71, N-((S)-1-(7-(benzo[d]thiazol-6-yl)-(3P)-3-(4-chloro-1-methyl-3-(methylsulfonamido)-1H-indazol-7-yl)-4-oxo-3,4-dihydropyrido[2,3-d]pyrimidin-2-yl)-2-(3,5-difluorophenyl)ethyl)-2-((3bS,4aR)-3-(difluoromethyl)-5,5-difluoro-3b,4,4a,5-tetrahydro-1H-cyclopropa[3,4]cyclopenta[1,2-c]pyrazol-1-yl)acetamide], for which, in series [1], the EC50 stood at 0.097 nM. In addition, in series [2], the 50% cytotoxic concentration (CC50) at 4 day is greater than 100 nM.

With `Cn1nc(NS(C)(=O)=O)c2c(Cl)ccc(-n3c([C@H](Cc4cc(F)cc(F)c4)NC(=O)Cn4nc(C(F)F)c5c4C(F)(F)[C@@H]4C[C@H]54)nc4nc(-c5csc(C(F)(F)F)n5)ccc4c3=O)c21` (atropisomer, axis not shown; (P)) [Example 4, N-((S)-1-((3P)-3-(4-chloro-1-methyl-3-(methylsulfonamido)-1H-indazol-7-yl)-4-oxo-7-(2-(trifluoromethyl)thiazol-4-yl)-3,4-dihydropyrido[2,3-d]pyrimidin-2-yl)-2-(3,5-difluorophenyl)ethyl)-2-((3bS,4aR)-3-(difluoromethyl)-5,5-difluoro-3b,4,4a,5-tetrahydro-1H-cyclopropa[3,4]cyclopenta[1,2-c]pyrazol-1-yl)acetamide], in series [1], the EC50 came out at 0.055 nM. In series [2], the CC50 at 4 day is greater than 100 nM.

In the case of `Cn1nc(NS(C)(=O)=O)c2c(Cl)ccc(-n3c([C@H](Cc4cc(F)cc(F)c4)NC(=O)Cn4nc(C(F)F)c5c4C(F)(F)[C@@H]4C[C@H]54)nc4nc(-c5cc(C(F)F)ccn5)ccc4c3=O)c21` (atropisomer, axis not shown; (P)) [Example 39, N-((S)-1-((3P)-3-(4-chloro-1-methyl-3-(methylsulfonamido)-1H-indazol-7-yl)-7-(4-(difluoromethyl)pyridin-2-yl)-4-oxo-3,4-dihydropyrido[2,3-d]pyrimidin-2-yl)-2-(3,5-difluorophenyl)ethyl)-2-((3bS,4aR)-3-(difluoromethyl)-5,5-difluoro-3b,4,4a,5-tetrahydro-1H-cyclopropa[3,4]cyclopenta[1,2-c]pyrazol-1-yl)acetamide], the EC50 in series [1] worked out at 0.046 nM. In series [2], this compound came in with a half-maximal cytotoxic concentration (CC50) at 4 day greater than 100 nM.

Consider `Cn1nc(NS(C)(=O)=O)c2c(Cl)ccc(-n3c([C@H](Cc4cc(F)cc(F)c4)NC(=O)Cn4nc(C(F)F)c5c4C(F)(F)[C@@H]4C[C@H]54)nc4nc(-c5cccc(C(F)F)c5)ccc4c3=O)c21` (atropisomer, axis not shown; (P)) [Example 23, N-((S)-1-((3P)-3-(4-chloro-1-methyl-3-(methylsulfonamido)-1H-indazol-7-yl)-7-(3-(difluoromethyl)phenyl)-4-oxo-3,4-dihydropyrido[2,3-d]pyrimidin-2-yl)-2-(3,5-difluorophenyl)ethyl)-2-((3bS,4aR)-3-(difluoromethyl)-5,5-difluoro-3b,4,4a,5-tetrahydro-1H-cyclopropa[3,4]cyclopenta[1,2-c]pyrazol-1-yl)acetamide], for which, in series [1], the EC50 was determined as 0.11 nM. This compound also showed a CC50 at 4 day in series [2] greater than 100 nM.

With `Cn1nccc1-c1ccc2c(=O)n(-c3ccc(Cl)c4c(NS(C)(=O)=O)nn(C)c34)c([C@H](Cc3cc(F)cc(F)c3)NC(=O)Cn3nc(C(F)F)c4c3C(F)(F)[C@@H]3C[C@H]43)nc2n1` (atropisomer, axis not shown; (P)) [Example 68, N-((S)-1-((3P)-3-(4-chloro-1-methyl-3-(methylsulfonamido)-1H-indazol-7-yl)-7-(1-methyl-1H-pyrazol-5-yl)-4-oxo-3,4-dihydropyrido[2,3-d]pyrimidin-2-yl)-2-(3,5-difluorophenyl)ethyl)-2-((3bS,4aR)-3-(difluoromethyl)-5,5-difluoro-3b,4,4a,5-tetrahydro-1H-cyclopropa[3,4]cyclopenta[1,2-c]pyrazol-1-yl)acetamide], in series [1], the EC50 was 0.049 nM. Further, the 50% cytotoxic concentration (CC50) at 4 day in series [2] was greater than 100 nM.

`Cn1nc(NS(C)(=O)=O)c2c(Cl)ccc(-n3c([C@H](Cc4cc(F)cc(F)c4)NC(=O)Cn4nc(C(F)F)c5c4C(F)(F)[C@@H]4C[C@H]54)nc4nc(-c5ccnnc5)ccc4c3=O)c21` (atropisomer, axis not shown; (P)) [Example 33, N-((S)-1-((3P)-3-(4-chloro-1-methyl-3-(methylsulfonamido)-1H-indazol-7-yl)-4-oxo-7-(pyridazin-4-yl)-3,4-dihydropyrido[2,3-d]pyrimidin-2-yl)-2-(3,5-difluorophenyl)ethyl)-2-((3bS,4aR)-3-(difluoromethyl)-5,5-difluoro-3b,4,4a,5-tetrahydro-1H-cyclopropa[3,4]cyclopenta[1,2-c]pyrazol-1-yl)acetamide]: in series [1], the EC50 worked out at 0.45 nM. In series [2], this compound came in with a cytotoxic concentration (CC50) at 4 day greater than 100 nM.

Regarding `Cn1nc(NS(C)(=O)=O)c2c(Cl)ccc(-n3c([C@H](Cc4cc(F)cc(F)c4)NC(=O)Cn4nc(C(F)F)c5c4C(F)(F)[C@@H]4C[C@H]54)nc4nc(-c5ccn(CCCC(F)(F)F)n5)ccc4c3=O)c21` (atropisomer, axis not shown; (P)) [Example 85, N-((S)-1-((3P)-3-(4-chloro-1-methyl-3-(methylsulfonamido)-1H-indazol-7-yl)-4-oxo-7-(1-(4,4,4-trifluorobutyl)-1H-pyrazol-3-yl)-3,4-dihydropyrido[2,3-d]pyrimidin-2-yl)-2-(3,5-difluorophenyl)ethyl)-2-((3bS,4aR)-3-(difluoromethyl)-5,5-difluoro-3b,4,4a,5-tetrahydro-1H-cyclopropa[3,4]cyclopenta[1,2-c]pyrazol-1-yl)acetamide], the half-maximal effective concentration (EC50) in series [1] was 0.096 nM. In series [2], this compound registered a CC50 at 4 day greater than 100 nM.

Consider `Cn1nc(NS(C)(=O)=O)c2c(Cl)ccc(-n3c([C@H](Cc4cc(F)cc(F)c4)NC(=O)Cn4nc(C(F)F)c5c4C(F)(F)[C@@H]4C[C@H]54)nc4nc(-c5cnn(CCF)c5)ccc4c3=O)c21` (atropisomer, axis not shown; (P)) [Example 76, N-((S)-1-((3P)-3-(4-chloro-1-methyl-3-(methylsulfonamido)-1H-indazol-7-yl)-7-(1-(2-fluoroethyl)-1H-pyrazol-4-yl)-4-oxo-3,4-dihydropyrido[2,3-d]pyrimidin-2-yl)-2-(3,5-difluorophenyl)ethyl)-2-((3bS,4aR)-3-(difluoromethyl)-5,5-difluoro-3b,4,4a,5-tetrahydro-1H-cyclopropa[3,4]cyclopenta[1,2-c]pyrazol-1-yl)acetamide], for which the EC50 in series [1] was found to be 0.11 nM. Moreover, the 50% cytotoxic concentration (CC50) at 4 day in series [2] is greater than 100 nM.

With `Cn1nc(NS(C)(=O)=O)c2c(Cl)ccc(-n3c([C@H](Cc4cc(F)cc(F)c4)NC(=O)Cn4nc(C(F)F)c5c4C(F)(F)[C@@H]4C[C@H]54)nc4ncc(-c5cccc(C(F)F)n5)cc4c3=O)c21` (atropisomer, axis not shown; (P)) [Example 3, N-((S)-1-((3P)-3-(4-chloro-1-methyl-3-(methylsulfonamido)-1H-indazol-7-yl)-6-(6-(difluoromethyl)pyridin-2-yl)-4-oxo-3,4-dihydropyrido[2,3-d]pyrimidin-2-yl)-2-(3,5-difluorophenyl)ethyl)-2-((3bS,4aR)-3-(difluoromethyl)-5,5-difluoro-3b,4,4a,5-tetrahydro-1H-cyclopropa[3,4]cyclopenta[1,2-c]pyrazol-1-yl)acetamide], the concentration for a half-maximal effect (EC50) in series [1] is 0.051 nM. The same compound registered a half-maximal cytotoxic concentration (CC50) at 4 day in series [2] greater than 100 nM.

For the compound `Cn1nc(NS(C)(=O)=O)c2c(Cl)ccc(-n3c([C@H](Cc4cc(F)cc(F)c4)NC(=O)Cn4nc(C(F)F)c5c4C(F)(F)[C@@H]4C[C@H]54)nc4ncc(-c5nccc(C(F)F)n5)cc4c3=O)c21` (atropisomer, axis not shown; (P)) [Example 2, N-((S)-1-((3P)-3-(4-chloro-1-methyl-3-(methylsulfonamido)-1H-indazol-7-yl)-6-(4-(difluoromethyl)pyrimidin-2-yl)-4-oxo-3,4-dihydropyrido[2,3-d]pyrimidin-2-yl)-2-(3,5-difluorophenyl)ethyl)-2-((3bS,4aR)-3-(difluoromethyl)-5,5-difluoro-3b,4,4a,5-tetrahydro-1H-cyclopropa[3,4]cyclopenta[1,2-c]pyrazol-1-yl)acetamide], the EC50 in series [1] came out at 0.031 nM. Also, in series [2], the CC50 at 4 day was greater than 100 nM.

`Cn1nc(NS(C)(=O)=O)c2c(Cl)ccc(-n3c([C@H](Cc4cc(F)cc(F)c4)NC(=O)Cn4nc(C(F)F)c5c4C(F)(F)[C@@H]4C[C@H]54)nc4nc(-c5cccc(C(C)(F)F)n5)ccc4c3=O)c21` (atropisomer, axis not shown; (P)) [Example 12, N-((S)-1-((3P)-3-(4-chloro-1-methyl-3-(methylsulfonamido)-1H-indazol-7-yl)-7-(6-(1,1-difluoroethyl)pyridin-2-yl)-4-oxo-3,4-dihydropyrido[2,3-d]pyrimidin-2-yl)-2-(3,5-difluorophenyl)ethyl)-2-((3bS,4aR)-3-(difluoromethyl)-5,5-difluoro-3b,4,4a,5-tetrahydro-1H-cyclopropa[3,4]cyclopenta[1,2-c]pyrazol-1-yl)acetamide]: in series [1], the EC50 came to 0.06 nM. The compound further showed a CC50 at 4 day in series [2] greater than 100 nM.
